Assay results published in ChEMBL document CHEMBL1201862, “PubChem BioAssay data set” (2004).
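Briefly, cells in 96-well plates were exposed to five compound concentrations for 48 h, and endpoints were estimated by linear interpolation. GI50 = concentration required for 50% inhibition of growth.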 Calls of active or inactive are those of the source. No stated cut-off is given here; in the data, active = GI50 up to about 1.1 µM and inactive = higher. Starred links: 1 amine or outer side, 2 acyl side, 3 side chain; linkers in the order of their positions; H or OH if unused. Positions of bridges follow the written chain, without caps; N, C: chain ends. Non-standard residues stand in square brackets, D forms with d. Residues, ends and D or L forms follow the SMILES beside them. ξ: configuration not given here. X11 = CCC(C)C(N[*:1])C(O)CC(=O)O[C@H](C(=O)C(C)C(=O)[*:2])C(C)C; X10 = O=C([C@@H]1CC(O)CN1[*:1])[*:2]; NMeY = CN[C@@H](Cc1ccc(O)cc1)C(=O)O; ξNMeL = CNC(CC(C)C)C(=O)O; ξT = CC(O)C(N)C(=O)O

Columns and labels:
Assay in all cases: growth of human tumour cells (NCI), 48 h
ACHN = system: ACHN
CAKI-1 = system: CAKI-1
COLO 205 = system: COLO 205
HCC 2998 = system: HCC 2998
HCT-116 = system: HCT-116
HL-60 = system: HL-60
HOP-62 = system: HOP-62
HT-29 = system: HT-29
Malme-3M = system: Malme-3M
NCI-H226 = system: NCI-H226
NCI-H522 = system: NCI-H522
OVCAR-3 = system: OVCAR-3
OVCAR-5 = system: OVCAR-5
OVCAR-8 = system: OVCAR-8
SF-268 = system: SF-268
SK-MEL-2 = system: SK-MEL-2
SK-OV-3 = system: SK-OV-3
SNB-19 = system: SNB-19
U-251 = system: U-251
UO-31 = system: UO-31

Row | Structure (SMILES) | GI50 (ACHN) | GI50 (CAKI-1) | GI50 (COLO 205) | GI50 (HCC 2998) | GI50 (HCT-116) | GI50 (HL-60) | GI50 (HOP-62) | GI50 (HT-29) | GI50 (Malme-3M) | GI50 (NCI-H226) | GI50 (NCI-H522) | GI50 (OVCAR-3) | GI50 (OVCAR-5) | GI50 (OVCAR-8) | GI50 (SF-268) | GI50 (SK-MEL-2) | GI50 (SK-OV-3) | GI50 (SNB-19) | GI50 (U-251) | GI50 (UO-31)
1 | CC12CCC(O)CC1CCC1C2CCC2(C)C(C(=O)CC(O)C(F)(F)F)CCC12 (stereo not given) | 47.6 µM (inactive) | 21 µM (inactive) | 12.2 µM (inactive) | 21.6 µM (inactive) | 28.4 µM (inactive) | 9.02 µM (inactive) | 27.7 µM (inactive) | 3.97 µM (inactive) | 51.3 µM (inactive) | 40 µM (inactive) | 27.1 µM (inactive) | 28.6 µM (inactive) | 26.4 µM (inactive) | 55.7 µM (inactive) | 33.7 µM (inactive) | 32.1 µM (inactive) | 27 µM (inactive) | 24.9 µM (inactive) | 26.2 µM (inactive) | 3.99 µM (inactive)
2 | CC(NC(=O)c1ccc(OP(=O)(OCC2=CC(=O)c3ccccc3C2=O)N(C)CCCCCl)cc1)c1ccc(OCC2CCCCC2)c(C(N)=O)c1 (stereo not given) | 12.7 µM (inactive) | 9.44 µM (inactive) | 7.28 µM (inactive) | 0.0149 µM (active) | 14.3 µM (inactive) | 14.5 µM (inactive) | 18 µM (inactive) | 15.1 µM (inactive) | 1.88 µM (inactive) | 11.1 µM (inactive) | 11.8 µM (inactive) | 1.41 µM (inactive) | 21.4 µM (inactive) | 13.4 µM (inactive) | 13.4 µM (inactive) | 14.8 µM (inactive) | 15.4 µM (inactive) | 14.4 µM (inactive) | 10.6 µM (inactive) | 10.2 µM (inactive)
3 | CN(CCN(C)CCN(C)C(=O)Cc1ccc(Cl)c(Cl)c1)CCN1CCCC1 | 45.9 µM (inactive) | 35.2 µM (inactive) | 16.3 µM (inactive) | 11.7 µM (inactive) | 25 µM (inactive) | 18.2 µM (inactive) | 25.4 µM (inactive) | 7.36 µM (inactive) | 20.5 µM (inactive) | 30.5 µM (inactive) | 20.6 µM (inactive) | 63.5 µM (inactive) | 37.5 µM (inactive) | 34.9 µM (inactive) | 41.2 µM (inactive) | 16 µM (inactive) | 46.8 µM (inactive) | 39 µM (inactive) | 19 µM (inactive) | 1.92 µM (inactive)
4 | O=c1oc2ccccc2cc1-c1cn2cc(Cl)ccc2n1 | 0.586 µM (active) | 0.422 µM (active) | 0.865 µM (active) | 1.13 µM (inactive) | 0.448 µM (active) | 2.59 µM (inactive) | 0.714 µM (active) | 7.11 µM (inactive) | 0.458 µM (active) | 15.6 µM (inactive) | 0.104 µM (active) | 0.497 µM (active) | 10.1 µM (inactive) | 1.71 µM (inactive) | 1.44 µM (inactive) | 3.27 µM (inactive) | 0.773 µM (active) | 0.494 µM (active) | 0.653 µM (active) | 1.32 µM (inactive)
5 | COC1=C(C(c2cc(OC)c(OC)c(OC)c2)c2cc3c(cc2OC)OCO3)C(=O)OC1 (stereo not given) | 26.7 µM (inactive) | > 48.5 µM (inactive) | 23.8 µM (inactive) | 44.1 µM (inactive) | 7.01 µM (inactive) | 8.55 µM (inactive) | 24.8 µM (inactive) | 20.5 µM (inactive) | 31.7 µM (inactive) | 28.4 µM (inactive) | 7.8 µM (inactive) | 22.3 µM (inactive) | 34.4 µM (inactive) | 27 µM (inactive) | 24.6 µM (inactive) | 45.2 µM (inactive) | 41.2 µM (inactive) | 30.7 µM (inactive) | 33.3 µM (inactive) | 14.2 µM (inactive)
6 | CCOC(=O)c1ccc(C(=O)C(C(C)=O)C(=O)OC(C)(C)C)[nH]1 (stereo not given) | > 100 µM (inactive) | > 100 µM (inactive) | > 100 µM (inactive) | > 100 µM (inactive) | > 100 µM (inactive) | > 100 µM (inactive) | > 100 µM (inactive) | > 100 µM (inactive) | > 100 µM (inactive) | > 100 µM (inactive) | > 100 µM (inactive) | > 100 µM (inactive) | > 100 µM (inactive) | > 100 µM (inactive) | > 100 µM (inactive) | > 100 µM (inactive) | > 100 µM (inactive) | > 100 µM (inactive) | > 100 µM (inactive) | > 100 µM (inactive)
7 | CN(/N=C/c1cccc2cccnc12)c1ccc([N+](=O)[O-])cc1[N+](=O)[O-] | 22 µM (inactive) | 24.4 µM (inactive) | 86.3 µM (inactive) | 71 µM (inactive) | 35.1 µM (inactive) | 40.8 µM (inactive) | 8.61 µM (inactive) | > 100 µM (inactive) | 18.2 µM (inactive) | 24 µM (inactive) | 16.4 µM (inactive) | 16.4 µM (inactive) | 70.1 µM (inactive) | 32.7 µM (inactive) | 18.5 µM (inactive) | 14.9 µM (inactive) | 20.6 µM (inactive) | 11.3 µM (inactive) | 13.9 µM (inactive) | 37.3 µM (inactive)
8 | Fc1cccc(CSc2ncnc3c2ncn3C2CCCS2)c1 (stereo not given) | 16.9 µM (inactive) | 37.1 µM (inactive) | 10.2 µM (inactive) | 21.9 µM (inactive) | 8.34 µM (inactive) | 8.83 µM (inactive) | 17.6 µM (inactive) | 15.5 µM (inactive) | 21 µM (inactive) | 29.2 µM (inactive) | 15.1 µM (inactive) | 17.4 µM (inactive) | 37.3 µM (inactive) | 20.8 µM (inactive) | 14.8 µM (inactive) | 19.6 µM (inactive) | 38.5 µM (inactive) | 36.2 µM (inactive) | 10.5 µM (inactive) | 12.1 µM (inactive)
9 | COc1ccc(NC(=O)C(=O)NO)c(OC)c1 | 15.9 µM (inactive) | 13.8 µM (inactive) | 21 µM (inactive) | 21.4 µM (inactive) | 18.5 µM (inactive) | 17.1 µM (inactive) | 19.9 µM (inactive) | 20.7 µM (inactive) | 23.8 µM (inactive) | 22.3 µM (inactive) | 5.92 µM (inactive) | 16.6 µM (inactive) | 19.5 µM (inactive) | 15 µM (inactive) | 16.9 µM (inactive) | 16.1 µM (inactive) | 19.5 µM (inactive) | 14.9 µM (inactive) | 16.7 µM (inactive) | 16.2 µM (inactive)
10 | COc1ccc(-c2cc(=O)c3c(OC)c(O)c(OC)cc3o2)cc1 | 30.5 µM (inactive) | 85.5 µM (inactive) | 49 µM (inactive) | 47 µM (inactive) | 46.8 µM (inactive) | 52 µM (inactive) | 38.1 µM (inactive) | 35.5 µM (inactive) | 96.2 µM (inactive) | 70 µM (inactive) | 17.9 µM (inactive) | 34 µM (inactive) | > 100 µM (inactive) | 56.6 µM (inactive) | 91.4 µM (inactive) | 57.1 µM (inactive) | 50.7 µM (inactive) | 58.7 µM (inactive) | 63.1 µM (inactive) | 30.7 µM (inactive)
11 | CCC(C)C1NC(=O)C(NC(=O)C(CC(C)C)N(C)C(=O)[C@@H]2CC(O)CN2)C(C)OC(=O)[C@H](Cc2ccc(OC)cc2)N(C)C(=O)[C@@H]2CCCN2C(=O)[C@H](CC(C)C)NC(=O)C(C)C(=O)[C@H](C(C)C)OC(=O)CC1O (stereo not given in full) (H-[X10][ξNMeL][ξT][X11]LP[NMeY](Me); ester 3-C) | 0.0382 µM (active) | 0.232 µM (active) | 0.00309 µM (active) | 0.00469 µM (active) | 0.00143 µM (active) | 0.0114 µM (active) | 0.00931 µM (active) | 0.00445 µM (active) | 0.00336 µM (active) | 0.00182 µM (active) | 0.00488 µM (active) | 0.014 µM (active) | 0.0275 µM (active) | 0.0384 µM (active) | 0.011 µM (active) | 0.00399 µM (active) | 0.00321 µM (active) | 0.00819 µM (active) | 0.00175 µM (active) | 0.233 µM (active)
12 | C[C@]12CC[C@H](O[C@@H]3O[C@H](CO[C@@H]4O[C@H](CO)[C@@H](O)[C@H](O)[C@H]4O)[C@@H](O)[C@H](O)[C@H]3O)C[C@@H]1CC[C@@H]1[C@@H]2CC[C@]2(C)[C@@H](C3=CC(=O)OC3)CC[C@]12O [UZARIN] | 8.57 µM (inactive) | 13.7 µM (inactive) | 50.1 µM (inactive) | 21.9 µM (inactive) | 9.06 µM (inactive) | 20.2 µM (inactive) | 13.7 µM (inactive) | 35.8 µM (inactive) | 17.5 µM (inactive) | 42.2 µM (inactive) | 7.91 µM (inactive) | 23.3 µM (inactive) | 27.4 µM (inactive) | 31.8 µM (inactive) | 11 µM (inactive) | 36.4 µM (inactive) | 35.3 µM (inactive) | 38.9 µM (inactive) | 39.7 µM (inactive) | 25.1 µM (inactive)
